Experimental data from US10604512B2, “3-(1H-indol-2-yl)-1H-indazoles and therapeutic uses thereof” (Samumed, LLC, priority 2015, dated 2020).

Key:
Assay type in all cases: cell-based
SW480 colon cancer cells = assay: Cell viability assay (CellTiter-Blue) in SW480 colon cancer cells; conditions: Homo sapiens, 96 h, four days, CellTiter-Blue
Outline: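 SW480 colon cancer cells (~2×10^3/well) exposed to 8-point 1:3 dilutions from 10 μM to 0.0045 μM for four days at 37 °C/5% CO2. Viability read by resazurin (CellTiter-Blue) fluorescence after ~3 h, Ex 560/Em 590 nm. EC50 from non-linear regression; percent inhibition at 10 μM given when EC50 >10 μM.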

IL-6 = assay: Inhibition of IL-6 in LPS-stimulated THP-1 human monocyte cells (HTRF); conditions: IL-6 inhibition, LPS-stimulated THP-1 cells, HTRF
Outline: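 THP-1 cells serum-reduced (1% FBS, 24 h), then 5000 cells/well preincubated 2 h with compound (10-point 1:3 series from 10 μM, 0.1% DMSO) before 500 ng/mL LPS for 22 h at 37 °C. Secreted IL-6 quantified by HTRF 665/620 ratio; DMSO-normalised duplicates fitted to four-parameter EC50; above 10 μM, % inhibition at 10 μM given.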

[1] = test system: primary human mesenchymal stem cells (hMSCs); assay: Induction of chondrogenesis in primary human mesenchymal stem cells (nodule imaging, Rhodamine B / Nile Red)
Description: Representative compounds were screened using primary human mesenchymal stem cells (hMSCs) to determine their ability to induce chondrogenesis (process by which cartilage is developed).
Primary human mesenchymal stem cells (hMSCs) were purchased from Lonza (Walkersville, Md.) and expanded in Mesenchymal Stem Cell Growth Media (Lonza). Cells between passage 3 and 6 were used for the experiments.
Each compound was dissolved in DMSO as a 10 mM stock and used to prepare compound source plates. For the 96 well assay, serial dilution (1:3, 6-point dose-response curves from 2700 nM to 10 nM) and compound transfer was performed using the ECHO 550 (Labcyte, Sunnyvale, Calif.) into 96-well clear bottom assay plates (Greiner Bio-One) with appropriate DMSO backfill for a final DMSO concentration of 0.03%. hMSCs were plated at 20,000 cells/well in 250 μL/well Incomplete Chondrogenic Induction Medium (Lonza; DMEM, dexamethasone, ascorbate, insulin-transferrin-selenium [ITS supplement], gentamycin-amphotericin [GA-1000], sodium pyruvate, proline and L-glutamine). TGF-β3 (10 ng/mL) was used as a positive control for differentiation while negative control wells were treated with 75 nL DMSO for normalization and calculating EC50 values. For the 384 well assay, serial dilution (1:3, 8-point dose-response curves from 5000 nM to 2.2 nM) and compound transfer was performed using the ECHO 550 (Labcyte, Sunnyvale, Calif.) into 384-well clear bottom assay plates (Greiner Bio-One) with appropriate DMSO backfill for a final DMSO concentration of 0.03%. hMSCs were plated at 8,000 cells/well in 80 μL/well Incomplete Chondrogenic Induction Medium (Lonza; DMEM, dexamethasone, ascorbate, insulin-transferrin-selenium [ITS supplement], gentamycin-amphotericin [GA-1000], sodium pyruvate, proline and L-glutamine). TGF-β3 (10 ng/mL) was used as a positive control for differentiation while negative control wells were treated with 25 nL DMSO for normalization and calculating EC50 values. Cells were incubated at 37° C. and 5% CO2 for 6 days. To image chondrogenic nodules, the cells were fixed using 4% formaldehyde (Electron Microscopy Sciences), and stained with 2 μg/mL Rhodamine B (Sigma-Aldrich) and 20 μM Nile Red (Sigma-Aldrich) [Johnson K., et. al, A Stem CellBased Approach to Cartilage Repair, Science, (2012), 336(6082), 717-721]. The nodules imaged (25 images per well for 96 well plates and 9 images per well for 384 well plates at 10× magnification) by excitation at 531 nm and emission at 625 nm and quantified using the CellInsight CX5 (Thermo Scientific). Area of nodules in each well was normalized to the average of 3 DMSO treated wells on the same plate using Excel (Microsoft Inc.). The normalized averages (fold change over DMSO) of 2 or 3 replicate wells for each compound concentration were calculated. Due to solubility limitations of some of the compounds, curve fitting was incomplete leading to inaccurate EC50 determinations.
Using TGF-β3 as a positive control, the concentration of representative compounds required to induce 50% levels of chondrogenesis is reported. In addition, the maximum activity of each compound and the respective dose that each compound reached maximum chondrogenesis activity is reported.

[2] = test system: Wnt activity (Sp5-Luc reporter, TCF/LEF binding sites) in SW480 colon carcinoma cells; assay: Screening assay for Wnt activity: Sp5-Luc reporter gene assay in stably transduced SW480 colon carcinoma cells; conditions: Homo sapiens, overnight incubation, 10-point curve from 10 μM
Outline: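 SW480 cells stably transduced with a luciferase reporter driven by an Sp5 promoter of eight TCF/LEF sites were plated at 4,000 cells/well in 1% FBS medium. They were exposed overnight at 37° C to a 10-point 1:3 dilution series from 10 μM (0.1% DMSO). Luminescence was normalized to DMSO for four-parameter EC50, or percent inhibition at 10 μM.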

- EC50 (SW480 colon cancer cells): 1400 nM
- EC50 (IL-6): 329 nM
- EC50 ([1]; concentration required to induce 50% levels of chondrogenesis vs TGF-β3 positive control, read-out: Conc (nM) of 50% TGF-β3 activity): 10 nM
- EC50 [2]: 588 nM
SMILES: COc1cncc(-c2ccc3[nH]nc(-c4cc5c(-c6ccoc6)cccc5[nH]4)c3c2)c1 [Compound 720, 3-(4-(Furan-3-yl)-1H-indol-2-yl)-5-(5-methoxypyridin-3-yl)-1H-indazole]
- Emax ([1]; maximum chondrogenesis activity relative to TGF-β3 (10 ng/mL) positive control, read-out: Max. Activity as % TGF-β3 activity): 151%
